# ChEMBL document CHEMBL1201862, “PubChem BioAssay data set” (2004)
# Activity calls are given as the source filed them.
# Assays:
# [1] = viability loss in HEK293 cells – cell-based, plate reader, cherry-picked samples, cytotoxicity control, dose response (AID 743446); assay type: functional
# [2] = NIH3T3 cell viability loss – ATP luminescence, mouse fibroblasts, counter-screen, dose response (AID 2010); assay type: functional, cell-based;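 further: cells exposed to compound for about 90 hours before reading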
# [3] = NIH-3T3 fibroblast cytotoxicity, dose response, cytotoxicity control, cell-based, fluorescence, Alamar Blue, secondary assay (AID 2327); assay type: functional;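 further: NIH-3T3 mouse fibroblasts cultured with fluconazole at 8 µg/mL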
# [4] = reduction of Shn3 3'UTR-driven luciferase in osteoblasts – cell-based, Clone20 osteoblasts, firefly luciferase, cherry-picked, dose response (AID 624132); assay type: functional;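 further: firefly luciferase luminescence from reporter carrying the Shn3 3'UTR in osteoblasts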
# [5] = toxicity toward HepG2 liver cells – cell-based, plate reader, cherry-pick, antagonist series, cytotoxicity control, dose response (AID 743416); assay type: functional
# Protein RecA = target: T1, Protein RecA (Mycobacterium tuberculosis, UniProt P9WHJ3); assay: Fluorescence Cell-Free Homogeneous Dose Retest to Identify Inhibitors of RecA-Intein Splicing Activity. [Related pubchem assays (depositor defined):AID2097, AID2223, AID489010, AID492950]; assay type: functional
# T1 sequence (P9WHJ3 whole entry): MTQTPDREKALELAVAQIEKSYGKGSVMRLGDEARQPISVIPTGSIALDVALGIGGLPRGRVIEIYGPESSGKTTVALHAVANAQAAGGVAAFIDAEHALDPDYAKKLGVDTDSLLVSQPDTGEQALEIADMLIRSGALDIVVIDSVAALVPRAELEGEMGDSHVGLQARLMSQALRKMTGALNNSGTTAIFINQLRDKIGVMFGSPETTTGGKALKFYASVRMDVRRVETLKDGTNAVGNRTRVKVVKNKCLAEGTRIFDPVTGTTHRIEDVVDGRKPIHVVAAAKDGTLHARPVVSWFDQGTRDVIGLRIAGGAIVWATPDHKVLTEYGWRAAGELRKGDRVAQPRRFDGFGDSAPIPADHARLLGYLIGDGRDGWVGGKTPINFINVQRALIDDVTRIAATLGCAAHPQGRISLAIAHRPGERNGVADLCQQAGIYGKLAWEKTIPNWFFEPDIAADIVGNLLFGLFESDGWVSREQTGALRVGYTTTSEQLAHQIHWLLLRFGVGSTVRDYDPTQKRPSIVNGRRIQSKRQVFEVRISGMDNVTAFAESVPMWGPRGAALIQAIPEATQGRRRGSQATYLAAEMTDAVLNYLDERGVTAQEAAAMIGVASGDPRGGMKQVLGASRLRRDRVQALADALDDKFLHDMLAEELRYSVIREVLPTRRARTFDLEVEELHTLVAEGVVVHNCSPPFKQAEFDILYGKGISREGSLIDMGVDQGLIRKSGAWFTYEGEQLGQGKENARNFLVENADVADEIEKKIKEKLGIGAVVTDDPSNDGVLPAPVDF
# [6] = blockade of melanocortin 4 receptor signaling – cell-based, plate reader, cherry pick, counter-screen for LGR2 antagonist project, dose response (AID 743444); assay type: functional;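 further: transfected HEK 293 cells stimulated with alpha-MSH peptide; potency of inhibitors of the alpha-MSH evoked signal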
# [7] = non-specific 3'UTR reporter inhibition in Clone20-Shn3RL – cell-based, Renilla luciferase, cherry-picked, counter-screen for Shn3 inhibitor project, dose response (AID 624133); assay type: functional
# [8] = blockers of bursicon-stimulated LGR2 cAMP reporter – cell-based, HEK293, CRE-luciferase reporter, cherry pick, set 2, dose response (AID 743343); assay type: functional;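 further: transfected cells were stimulated with diluted bursicon conditioned medium after compound addition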
# [9] = Trypanosoma cruzi growth suppression in host cells – NIH3T3 host cells, beta-gal luminescence, confirmation (AID 2044); assay type: functional, cell-based;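 further: intracellular parasites grown in NIH/3T3 mouse fibroblasts as host cells; luminescent beta-galactosidase reporter signal from transgenic T. cruzi replicating inside host cells; inhibitors lower the luminescence signal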
# [10] = A549 cell cytotoxicity, dose response, cytotoxicity control, plate reader, cherry-pick, antagonist series (AID 743412); assay type: functional, cell-based
# [11] = target: G-protein coupled receptor 55 (Homo sapiens, UniProt Q9Y2T6); assay: inhibition of LPI-stimulated GPR55 beta-arrestin translocation – imaging, U2OS, beta-arrestin-GFP, LPI agonist, primary screen (AID 2013); assay type: functional;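 further: antagonist potency measured as reduced agonist-driven arrestin aggregation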
# G-protein coupled receptor 55, sequence (Q9Y2T6 whole entry): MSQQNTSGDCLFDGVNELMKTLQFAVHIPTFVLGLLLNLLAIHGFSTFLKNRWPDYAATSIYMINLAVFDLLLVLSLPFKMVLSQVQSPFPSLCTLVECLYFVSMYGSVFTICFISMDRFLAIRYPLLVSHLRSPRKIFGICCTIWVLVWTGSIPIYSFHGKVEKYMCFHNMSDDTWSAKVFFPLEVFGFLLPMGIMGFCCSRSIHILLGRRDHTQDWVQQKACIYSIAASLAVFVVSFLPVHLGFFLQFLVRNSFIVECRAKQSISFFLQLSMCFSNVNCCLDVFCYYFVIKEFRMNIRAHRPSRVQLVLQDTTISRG
# [12] = target: Bifunctional protein GlmU (Mycobacterium tuberculosis, UniProt P9WMN3); assay: Inhibitors of Mycobacterial Glucosamine-1-phosphate acetyl transferase (GlmU). Secondary screen.; parameters: species or system Mycobacterium tuberculosis H37Rv
# Bifunctional protein GlmU, sequence (P9WMN3 whole entry, the tested form may be a part): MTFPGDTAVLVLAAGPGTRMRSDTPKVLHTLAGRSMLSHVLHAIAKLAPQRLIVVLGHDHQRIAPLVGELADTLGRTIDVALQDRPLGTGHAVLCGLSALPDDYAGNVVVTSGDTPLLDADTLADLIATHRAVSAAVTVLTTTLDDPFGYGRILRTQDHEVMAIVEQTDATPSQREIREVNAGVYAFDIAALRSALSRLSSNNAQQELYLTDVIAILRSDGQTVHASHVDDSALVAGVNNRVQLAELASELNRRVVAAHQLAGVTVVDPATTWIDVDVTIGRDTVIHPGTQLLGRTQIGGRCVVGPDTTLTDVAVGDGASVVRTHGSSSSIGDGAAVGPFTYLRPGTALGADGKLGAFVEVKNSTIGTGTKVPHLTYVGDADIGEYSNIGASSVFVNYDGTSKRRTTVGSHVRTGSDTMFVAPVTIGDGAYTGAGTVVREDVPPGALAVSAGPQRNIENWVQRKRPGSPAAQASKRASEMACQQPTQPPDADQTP
# CHO = CHO cell viability loss, potency – luminescence, cytotoxicity control for TLR9-MyD88 binding inhibitor project, dose response (AID 588339); assay type: functional, cell-based, hamster; conditions: Cricetulus griseus;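 further: CHO cells stably coexpressing TLR9 and MyD88 fusions from primary screen; compound exposure lasted 48 hours before viability readout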
# Beta Lactamase = Beta Lactamase (Pseudomonas aeruginosa, UniProt Q932Y6); assay: BLA reporter interference, concentration series – BLA reporter cells, FRET fluorescence, artefact control for TLR9-MyD88 binding inhibitor project, dose response (AID 588341); assay type: cell-based;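 further: cell based assay in CHO-K1 cells stably expressing beta-lactamase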
# Beta Lactamase, sequence (Q932Y6 whole entry): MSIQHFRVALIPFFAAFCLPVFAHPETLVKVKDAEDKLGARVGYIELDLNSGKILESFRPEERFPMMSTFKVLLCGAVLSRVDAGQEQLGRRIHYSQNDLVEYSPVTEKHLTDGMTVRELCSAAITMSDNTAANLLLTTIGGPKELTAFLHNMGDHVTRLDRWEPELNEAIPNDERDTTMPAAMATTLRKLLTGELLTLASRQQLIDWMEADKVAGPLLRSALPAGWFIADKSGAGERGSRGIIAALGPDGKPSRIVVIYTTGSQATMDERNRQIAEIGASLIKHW
# [13] = target: T2, Replicative DNA helicase DnaB (Mycobacterium tuberculosis, UniProt P9WMR3); assay: DnaB intein splicing inhibitors, dose response, biochemical, cell-free fluorescence (AID 449749); assay type: functional
# T2 sequence (P9WMR3 whole entry): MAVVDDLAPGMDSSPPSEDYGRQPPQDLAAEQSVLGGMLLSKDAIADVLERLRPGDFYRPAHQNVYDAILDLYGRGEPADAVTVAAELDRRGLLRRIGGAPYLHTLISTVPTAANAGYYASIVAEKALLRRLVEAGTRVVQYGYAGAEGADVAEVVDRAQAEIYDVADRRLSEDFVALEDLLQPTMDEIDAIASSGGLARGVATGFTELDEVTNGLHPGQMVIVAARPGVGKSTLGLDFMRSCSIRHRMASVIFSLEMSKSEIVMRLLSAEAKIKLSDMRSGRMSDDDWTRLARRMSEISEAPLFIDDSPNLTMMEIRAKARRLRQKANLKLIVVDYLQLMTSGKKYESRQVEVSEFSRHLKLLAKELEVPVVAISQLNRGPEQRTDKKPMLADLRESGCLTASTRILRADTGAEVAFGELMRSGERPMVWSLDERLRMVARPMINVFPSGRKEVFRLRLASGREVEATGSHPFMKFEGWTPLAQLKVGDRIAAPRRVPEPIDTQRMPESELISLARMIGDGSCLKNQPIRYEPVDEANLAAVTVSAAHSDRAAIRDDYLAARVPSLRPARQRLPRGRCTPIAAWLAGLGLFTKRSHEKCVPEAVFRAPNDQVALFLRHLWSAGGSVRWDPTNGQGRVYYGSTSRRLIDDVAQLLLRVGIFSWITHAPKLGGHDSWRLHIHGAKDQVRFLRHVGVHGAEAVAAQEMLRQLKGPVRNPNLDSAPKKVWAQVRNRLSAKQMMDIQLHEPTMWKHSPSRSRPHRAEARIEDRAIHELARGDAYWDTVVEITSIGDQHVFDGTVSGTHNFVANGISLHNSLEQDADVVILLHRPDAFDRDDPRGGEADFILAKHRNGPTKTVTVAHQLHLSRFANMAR
# [14] = fluconazole-exposed Candida albicans growth modulators – fluorescence, retest, confirmation (AID 2467); assay type: functional, cell-based
# [15] = Luminescent dose response cell-based high throughput screening assay for inhibitors of the Janus kinase 2 mutant JAK2V617F. [Related pubchem assays: 1446 (Primary screen.), 1521 (Confirmation assay.), 1486 (Counter screen.)]; assay type: functional
# [16] = target: T3, Voltage-gated inwardly rectifying potassium channel KCNH2 (Homo sapiens, UniProt Q12809); assay: concentration-dependent hERG rescue from blockers – cell-based, thallium flux, dose response (AID 2121); assay type: ADME
# T3 sequence (Q12809 whole entry): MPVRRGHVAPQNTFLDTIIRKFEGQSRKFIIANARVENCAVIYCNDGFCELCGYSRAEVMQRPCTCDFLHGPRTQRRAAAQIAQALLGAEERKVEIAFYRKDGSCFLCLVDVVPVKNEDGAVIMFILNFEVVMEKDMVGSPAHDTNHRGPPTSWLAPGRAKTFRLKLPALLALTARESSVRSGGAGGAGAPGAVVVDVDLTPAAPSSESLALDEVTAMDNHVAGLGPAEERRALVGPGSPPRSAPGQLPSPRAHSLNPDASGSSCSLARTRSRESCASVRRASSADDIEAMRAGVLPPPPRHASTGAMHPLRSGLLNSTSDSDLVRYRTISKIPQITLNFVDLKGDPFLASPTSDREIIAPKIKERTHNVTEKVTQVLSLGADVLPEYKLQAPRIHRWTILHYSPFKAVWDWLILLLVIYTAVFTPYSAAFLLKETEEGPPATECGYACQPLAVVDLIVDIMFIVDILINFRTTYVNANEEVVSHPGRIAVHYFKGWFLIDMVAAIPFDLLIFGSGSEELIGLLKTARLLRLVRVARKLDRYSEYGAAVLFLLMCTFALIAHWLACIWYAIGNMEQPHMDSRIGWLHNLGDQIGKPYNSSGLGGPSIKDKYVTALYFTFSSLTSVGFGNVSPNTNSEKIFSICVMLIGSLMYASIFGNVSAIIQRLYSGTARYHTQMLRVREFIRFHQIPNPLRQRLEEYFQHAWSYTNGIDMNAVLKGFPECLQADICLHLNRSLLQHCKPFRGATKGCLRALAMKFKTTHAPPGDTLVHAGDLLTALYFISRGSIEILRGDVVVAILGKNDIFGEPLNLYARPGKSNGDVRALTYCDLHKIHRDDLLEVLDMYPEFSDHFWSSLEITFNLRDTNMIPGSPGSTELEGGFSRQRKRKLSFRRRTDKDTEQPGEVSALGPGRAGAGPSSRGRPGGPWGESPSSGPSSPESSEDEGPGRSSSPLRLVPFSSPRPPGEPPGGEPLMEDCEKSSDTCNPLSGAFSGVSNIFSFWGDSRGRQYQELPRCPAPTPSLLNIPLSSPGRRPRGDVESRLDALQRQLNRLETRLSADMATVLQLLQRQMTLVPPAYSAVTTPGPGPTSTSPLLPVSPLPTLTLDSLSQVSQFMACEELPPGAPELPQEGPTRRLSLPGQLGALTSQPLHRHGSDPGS
# Aminopeptidase N = target: T4, Aminopeptidase N (Plasmodium falciparum FcB1/Columbia, UniProt O96935); assay: malaria alanyl aminopeptidase activity blockers – biochemical, fluorogenic H-Leu-NHMec substrate, 1536-well (AID 1445); parameters: species or system Plasmodium falciparum 3D7, 3D7
# T4 sequence (O96935 whole entry): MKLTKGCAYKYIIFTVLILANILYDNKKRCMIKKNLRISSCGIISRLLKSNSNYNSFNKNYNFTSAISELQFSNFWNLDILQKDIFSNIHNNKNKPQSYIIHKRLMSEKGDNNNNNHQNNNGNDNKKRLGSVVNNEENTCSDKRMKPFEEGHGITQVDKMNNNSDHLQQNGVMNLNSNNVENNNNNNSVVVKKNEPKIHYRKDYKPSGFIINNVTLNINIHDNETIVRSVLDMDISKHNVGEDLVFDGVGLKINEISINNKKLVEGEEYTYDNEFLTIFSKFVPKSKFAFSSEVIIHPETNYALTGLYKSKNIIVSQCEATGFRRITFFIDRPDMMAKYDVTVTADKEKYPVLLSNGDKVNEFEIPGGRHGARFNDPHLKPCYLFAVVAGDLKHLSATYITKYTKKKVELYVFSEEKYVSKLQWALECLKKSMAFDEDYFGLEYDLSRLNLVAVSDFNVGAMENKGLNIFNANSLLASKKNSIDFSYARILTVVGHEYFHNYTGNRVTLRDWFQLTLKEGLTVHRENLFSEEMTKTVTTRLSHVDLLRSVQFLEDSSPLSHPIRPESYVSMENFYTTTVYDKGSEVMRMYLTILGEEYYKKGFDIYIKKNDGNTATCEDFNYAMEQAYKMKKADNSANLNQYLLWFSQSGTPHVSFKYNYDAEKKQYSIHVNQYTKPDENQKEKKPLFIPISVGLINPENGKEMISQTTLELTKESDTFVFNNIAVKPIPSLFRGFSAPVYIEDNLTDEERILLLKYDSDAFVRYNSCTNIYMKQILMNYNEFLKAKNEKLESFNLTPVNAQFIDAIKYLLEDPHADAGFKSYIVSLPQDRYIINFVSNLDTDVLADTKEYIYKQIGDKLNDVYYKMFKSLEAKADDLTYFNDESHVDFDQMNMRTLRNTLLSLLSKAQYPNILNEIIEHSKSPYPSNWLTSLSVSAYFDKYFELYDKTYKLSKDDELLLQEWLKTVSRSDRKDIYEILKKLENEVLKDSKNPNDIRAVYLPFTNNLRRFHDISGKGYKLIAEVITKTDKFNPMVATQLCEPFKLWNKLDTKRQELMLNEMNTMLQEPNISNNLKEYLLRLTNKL
# [17] = target: T3, Voltage-gated inwardly rectifying potassium channel KCNH2; assay: dose-dependent reversal of dofetilide hERG block – manual patch clamp, HEK293 cells, dose response (AID 2638); assay type: ADME
smiles,measurement,setting,value
CNC(=O)c1nnsc1[S+]([O-])c1ccc(Cl)cc1 (stereo unspecified),AC50,[1],12 µM (active)
same,EC50,[2],1.9 µM (active)
same,EC50,[3],5.05 µM (inconclusive)
same,AC50,[4],2.02 µM (active)
same,AC50,[5],9.72 µM (active)
same,EC50,Protein RecA,21 µM (active)
same,AC50,[6],2.49 µM (active)
same,AC50,[7],6.49 µM (active)
same,AC50,[8],2.58 µM (active)
same,EC50,[9],0.977 µM (active)
same,AC50,[10],11.5 µM (active)
same,IC50,[11],2.73 µM (active)
same,IC50,[12],108 µM (active)
same,IC50,CHO,2.23 µM (active)
same,IC50,Beta Lactamase,19.6 µM (inactive)
same,AC50,[13],41.2 µM (active)
same,EC50,[14],2.07 µM (active)
same,IC50,[15],0.707 µM (active)
CCC1CCCCN1C(=S)NC(=O)c1cccs1 (stereo unspecified),EC50,[16],0.29 µM (active)
same,IC50,Aminopeptidase N,30 µM (active)
same,EC50,[17],5.2 µM (active)
